In patent US9879041B2, “Saccharide dendritic cluster compounds as inhibitors of BACE-1” (Victoria Link Limited, priority 2012, dated 2018):

How the values were obtained:
bovine Factor Xa = target: T1, bovine Factor Xa (Bos taurus, UniProt P00743); assay: Factor Xa anticoagulant assay (antithrombin-III mediated inactivation of Factor Xa); assay type: biochemical; settings: dose range 0.004 to 50 μg/ml
T1 construct: purchased Thermo Scientific 32521
Method: The plate is incubated for two minutes at 37° C. […] 19 μl of 2.5 mM chromogenic substrate (American Diagnostica Inc. Spectrozyme FXa Product No 222L) in assay buffer is added to each well and incubated for 2 hours at 37° C., followed by addition of 5 μl of 30% acetic acid to each well. Absorbance at 405 nm is read on a multiplate reader.

recombinant human BACE-1 = target: T2, recombinant human BACE-1 (Homo sapiens, UniProt P56817); assay: BACE-1 inhibition by in vitro FRET peptide cleavage assay; assay type: biochemical; settings: pH 4.5, 1 h, 25° C.
T2 construct: purchased R & D Systems 931-AS
Method: The ability of compounds of the invention to inhibit BACE-1 cleavage of APP is assessed using a fluorescent resonance energy transfer (FRET) peptide cleavage assay employing the FRET peptide HiLyte 488-Glu-Val-Asn-Leu-Asp-Ala-Glu-Phe-Lys(QXL520)-OH (Anaspec, Inc., CA, USA; Cat no. 60604-01). When intact, the amino terminal fluorophore is quenched, but upon enzymatic cleavage the fluorophore is released from quencher and fluoresces (520 nm). Assays are performed in triplicate in 96 well black plates (20 mM sodium acetate, 0.1% Triton-X-100, pH 4.5; 2.2 ng peptide per well and 25 ng/well of recombinant human BACE-1 (R & D Systems Cat no. 931-AS). The appropriate controls for enzyme activity (substrate plus enzyme, and substrate only) are employed and plates are incubated (1 h, 25° C., with activity stopped with 2.5 M sodium acetate). Compounds of the invention are added in the concentration range from 100-0.0001 μg/mL. Fluorescence 480ex/520em is measured on a Polarstar plate reader (BMG LabTechnologies, UK) and data are analysed by plotting log10 concentration of compound against percent inhibition and fitting a logistic dose response sigmoidal curve using OriginPro 8 (OriginLabs, Mass, USA).

Aβ1-40 = assay: Brain slice assay, soluble Aβ1-40 in medium by ELISA; assay type: cell-based, Transgenic TG2576 mice; settings: TG2576 mouse brain slices; 1, 10 and 100 μg/ml; 96 hours vs. 48 hours
Method: Transgenic TG2576 mice expressing the human SWE-mutated amyloid precursor protein are sacrificed by cervical dislocation at 8-10 months of age. The brain is removed and 400 μm coronal sections are obtained using a manual tissue chopper (Leica Microsystems). Slices are washed briefly in HBSS (Hank balanced salt solution, Life Technologies) supplemented with 4.5 mg/ml glucose (Sigma-Aldrich) and 3.75 μg/ml amphotericin B (Sigma-Aldrich) and transferred to a transwell plate (Costar 3396 HTS 24 well transwell plate with 0.4 μm polycarbonate membrane) in 1 ml of 50% MEM (minimal essential medium, Life Technologies) supplemented with 25% heat-inactivated horse serum (Life Technologies), 25% HBSS, 0.5 mM glutamine (Life Technologies), 4.5 mg/ml glucose and 3.75 μg/ml amphotericin B. Slices are incubated 48 hours at 37 C, 5% CO2. […] Soluble Aμ1-40 in the medium is quantified using a SensoLyte™ Anti-Human βeta-Amyloid (1-40) ELISA kit (Anaspec) in accordance with the manufacturer's instructions. […] The color reaction is stopped with 50 μl of Stop Solution and the plate is read at 450 nm using an absorbance plate reader (Thermo Multiskan EX). The amount of Aβ-40 is quantified by reference to a standard curve of Aβ1-40 (supplied in the SensoLyte™ kit). Data are expressed as a percentage of the Aβ1-40 present at 96 hours vs. 48 hours for each condition.

T1 sequence (P01008 33-464 partner): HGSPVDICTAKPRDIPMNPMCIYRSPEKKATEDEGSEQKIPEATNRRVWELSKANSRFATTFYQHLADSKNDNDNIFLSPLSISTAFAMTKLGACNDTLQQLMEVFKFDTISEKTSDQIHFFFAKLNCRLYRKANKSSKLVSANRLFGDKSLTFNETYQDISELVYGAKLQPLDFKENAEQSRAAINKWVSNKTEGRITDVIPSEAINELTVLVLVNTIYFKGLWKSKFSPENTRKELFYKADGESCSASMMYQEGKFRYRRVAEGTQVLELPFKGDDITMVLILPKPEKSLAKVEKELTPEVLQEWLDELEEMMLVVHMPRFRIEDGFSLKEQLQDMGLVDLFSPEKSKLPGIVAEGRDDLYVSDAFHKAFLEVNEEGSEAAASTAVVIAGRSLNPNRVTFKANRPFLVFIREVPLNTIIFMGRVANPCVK
T1 sequence (P00743 234-492 limits assumed): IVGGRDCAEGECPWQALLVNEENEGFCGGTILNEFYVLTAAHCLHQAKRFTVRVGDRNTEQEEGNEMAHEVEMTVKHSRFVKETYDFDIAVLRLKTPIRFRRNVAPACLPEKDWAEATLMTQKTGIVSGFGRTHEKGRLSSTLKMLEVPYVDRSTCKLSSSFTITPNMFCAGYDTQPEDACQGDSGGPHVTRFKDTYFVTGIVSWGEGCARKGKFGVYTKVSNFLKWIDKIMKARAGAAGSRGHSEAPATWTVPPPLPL
T2 sequence (P56817 46-501): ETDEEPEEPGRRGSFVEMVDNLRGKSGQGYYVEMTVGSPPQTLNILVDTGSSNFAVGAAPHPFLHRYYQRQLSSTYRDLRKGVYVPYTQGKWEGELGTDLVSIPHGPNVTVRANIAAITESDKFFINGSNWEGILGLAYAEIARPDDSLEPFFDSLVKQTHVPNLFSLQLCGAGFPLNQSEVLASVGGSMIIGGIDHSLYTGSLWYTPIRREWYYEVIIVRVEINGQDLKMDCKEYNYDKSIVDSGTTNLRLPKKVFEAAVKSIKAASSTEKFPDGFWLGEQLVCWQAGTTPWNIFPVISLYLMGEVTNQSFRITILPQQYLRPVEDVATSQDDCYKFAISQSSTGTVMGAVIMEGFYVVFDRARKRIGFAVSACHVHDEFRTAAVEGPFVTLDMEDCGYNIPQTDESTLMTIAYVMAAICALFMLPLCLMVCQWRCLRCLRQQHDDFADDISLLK

Structure (SMILES)	ability to accelerate antithrombin-III mediated inactivation of Factor Xa, as measured by cleavage of a peptide substrate (bovine Factor Xa)	IC50 (recombinant human BACE-1)	ability to lower amounts of Aβ1-40 in brain slices (Aβ1-40)
CC(=O)NC1C(OCCCCCCNC(=O)CCOCC(COCCC(=O)NCCCCCCOC2OC(COS(=O)(=O)O)C(O)C(O)C2NC(C)=O)(COCCC(=O)NCCCCCCOC2OC(COS(=O)(=O)O)C(O)C(O)C2NC(C)=O)COCCC(=O)NCCCCCCOC2OC(COS(=O)(=O)O)C(O)C(O)C2NC(C)=O)OC(COS(=O)(=O)O)C(O)C1O (stereo not shown) [Compound 18e]	do not display any measurable ability	~25600 nM	–
O=C(CCCCCCCNC(=O)CCOCC(COCCC(=O)NCCCCCCCC(=O)NCCCCCCOC1OC(C(=O)O)C(OC2OC(COS(=O)(=O)O)C(OC3OC(C(=O)O)C(OC4OC(COS(=O)(=O)O)C(O)C(O)C4NS(=O)(=O)O)C(O)C3OS(=O)(=O)O)C(O)C2NS(=O)(=O)O)C(O)C1OS(=O)(=O)O)(COCCC(=O)NCCCCCCCC(=O)NCCCCCCOC1OC(C(=O)O)C(OC2OC(COS(=O)(=O)O)C(OC3OC(C(=O)O)C(OC4OC(COS(=O)(=O)O)C(O)C(O)C4NS(=O)(=O)O)C(O)C3OS(=O)(=O)O)C(O)C2NS(=O)(=O)O)C(O)C1OS(=O)(=O)O)COCCC(=O)NCCCCCCCC(=O)NCCCCCCOC1OC(C(=O)O)C(OC2OC(COS(=O)(=O)O)C(OC3OC(C(=O)O)C(OC4OC(COS(=O)(=O)O)C(O)C(O)C4NS(=O)(=O)O)C(O)C3OS(=O)(=O)O)C(O)C2NS(=O)(=O)O)C(O)C1OS(=O)(=O)O)NCCCCCCOC1OC(C(=O)O)C(OC2OC(COS(=O)(=O)O)C(OC3OC(C(=O)O)C(OC4OC(COS(=O)(=O)O)C(O)C(O)C4NS(=O)(=O)O)C(O)C3OS(=O)(=O)O)C(O)C2NS(=O)(=O)O)C(O)C1OS(=O)(=O)O (stereo not shown) [Compound 22a]	do not display any measurable ability	~1.67 nM	–
CC(=O)NC1C(OC2C(C(=O)O)OC(OCCCCCCNC(=O)CCCCCCCNC(=O)CCOCC(COCCC(=O)NCCCCCCCC(=O)NCCCCCCOC3OC(C(=O)O)C(OC4OC(COS(=O)(=O)O)C(O)C(O)C4NC(C)=O)C(O)C3O)(COCCC(=O)NCCCCCCCC(=O)NCCCCCCOC3OC(C(=O)O)C(OC4OC(COS(=O)(=O)O)C(O)C(O)C4NC(C)=O)C(O)C3O)COCCC(=O)NCCCCCCCC(=O)NCCCCCCOC3OC(C(=O)O)C(OC4OC(COS(=O)(=O)O)C(O)C(O)C4NC(C)=O)C(O)C3O)C(O)C2O)OC(COS(=O)(=O)O)C(O)C1O (stereo not shown) [Compound 18a]	–	–	demonstrate the ability to lower amounts of Aβ1-40
CC(=O)NC1C(OCCCCCCNC(=O)CCCCCCCNC(=O)CCOCC(COCCC(=O)NCCCCCCCC(=O)NCCCCCCOC2OC(COS(=O)(=O)O)C(O)C(O)C2NC(C)=O)(COCCC(=O)NCCCCCCCC(=O)NCCCCCCOC2OC(COS(=O)(=O)O)C(O)C(O)C2NC(C)=O)COCCC(=O)NCCCCCCCC(=O)NCCCCCCOC2OC(COS(=O)(=O)O)C(O)C(O)C2NC(C)=O)OC(COS(=O)(=O)O)C(O)C1O (stereo not shown) [Compound 18h]	do not display any measurable ability	794 to 1980 nM	–
CC(=O)NC1C(OC2C(C(=O)O)OC(OCCCCCCNC(=O)CCCCCCCNC(=O)CCOCC(COCCC(=O)NCCCCCCCC(=O)NCCCCCCOC3OC(C(=O)O)C(OC4OC(COS(=O)(=O)O)C(O)C(O)C4NC(C)=O)C(O)C3OS(=O)(=O)O)(COCCC(=O)NCCCCCCCC(=O)NCCCCCCOC3OC(C(=O)O)C(OC4OC(COS(=O)(=O)O)C(O)C(O)C4NC(C)=O)C(O)C3OS(=O)(=O)O)COCCC(=O)NCCCCCCCC(=O)NCCCCCCOC3OC(C(=O)O)C(OC4OC(COS(=O)(=O)O)C(O)C(O)C4NC(C)=O)C(O)C3OS(=O)(=O)O)C(OS(=O)(=O)O)C2O)OC(COS(=O)(=O)O)C(O)C1O (stereo not shown) [Compound 20b]	do not display any measurable ability	~56.4 nM	–
CC(=O)NC1C(OC2C(C(=O)O)OC(OC3C(COS(=O)(=O)O)OC(OC4C(C(=O)O)OC(OCCCCCCNC(=O)CCCCCCCNC(=O)CCOCC(COCCC(=O)NCCCCCCCC(=O)NCCCCCCOC5OC(C(=O)O)C(OC6OC(COS(=O)(=O)O)C(OC7OC(C(=O)O)C(OC8OC(COS(=O)(=O)O)C(O)C(O)C8NC(C)=O)C(O)C7OS(=O)(=O)O)C(O)C6NC(C)=O)C(O)C5OS(=O)(=O)O)(COCCC(=O)NCCCCCCCC(=O)NCCCCCCOC5OC(C(=O)O)C(OC6OC(COS(=O)(=O)O)C(OC7OC(C(=O)O)C(OC8OC(COS(=O)(=O)O)C(O)C(O)C8NC(C)=O)C(O)C7OS(=O)(=O)O)C(O)C6NC(C)=O)C(O)C5OS(=O)(=O)O)COCCC(=O)NCCCCCCCC(=O)NCCCCCCOC5OC(C(=O)O)C(OC6OC(COS(=O)(=O)O)C(OC7OC(C(=O)O)C(OC8OC(COS(=O)(=O)O)C(O)C(O)C8NC(C)=O)C(O)C7OS(=O)(=O)O)C(O)C6NC(C)=O)C(O)C5OS(=O)(=O)O)C(OS(=O)(=O)O)C4O)C(NC(C)=O)C3O)C(OS(=O)(=O)O)C2O)OC(COS(=O)(=O)O)C(O)C1O (stereo not shown) [Compound 20c]	do not display any measurable ability	~1.75 nM	–
CC(=O)NC1C(OC2C(C(=O)O)OC(OC3C(COS(=O)(=O)O)OC(OC4C(C(=O)O)OC(OCCCCCCNC(=O)CCCCCCCNC(=O)CCOCC(COCCC(=O)NCCCCCCCC(=O)NCCCCCCOC5OC(C(=O)O)C(OC6OC(COS(=O)(=O)O)C(OC7OC(C(=O)O)C(OC8OC(COS(=O)(=O)O)C(O)C(O)C8NC(C)=O)C(O)C7O)C(O)C6NC(C)=O)C(O)C5O)(COCCC(=O)NCCCCCCCC(=O)NCCCCCCOC5OC(C(=O)O)C(OC6OC(COS(=O)(=O)O)C(OC7OC(C(=O)O)C(OC8OC(COS(=O)(=O)O)C(O)C(O)C8NC(C)=O)C(O)C7O)C(O)C6NC(C)=O)C(O)C5O)COCCC(=O)NCCCCCCCC(=O)NCCCCCCOC5OC(C(=O)O)C(OC6OC(COS(=O)(=O)O)C(OC7OC(C(=O)O)C(OC8OC(COS(=O)(=O)O)C(O)C(O)C8NC(C)=O)C(O)C7O)C(O)C6NC(C)=O)C(O)C5O)C(O)C4O)C(NC(C)=O)C3O)C(O)C2O)OC(COS(=O)(=O)O)C(O)C1O (stereo not shown) [Compound 18c]	do not display any measurable ability	~39.5 nM	–
CC(=O)NC1C(OC2C(C(=O)O)OC(OCCCCCCNC(=O)CCCCCCCNC(=O)CCOCC(COCCC(=O)NCCCCCCCC(=O)NCCCCCCOC3OC(C(=O)O)C(OC4OC(COS(=O)(=O)O)C(O)C(O)C4NC(C)=O)C(O)C3O)(COCCC(=O)NCCCCCCCC(=O)NCCCCCCOC3OC(C(=O)O)C(OC4OC(COS(=O)(=O)O)C(O)C(O)C4NC(C)=O)C(O)C3O)COCCC(=O)NCCCCCCCC(=O)NCCCCCCOC3OC(C(=O)O)C(OC4OC(COS(=O)(=O)O)C(O)C(O)C4NC(C)=O)C(O)C3O)C(O)C2O)OC(COS(=O)(=O)O)C(O)C1O (stereo not shown) [Compound 18b]	do not display any measurable ability	~3100 nM	–
CC(=O)NC1C(OC2C(C(=O)O)OC(OCCCCCCNC(=O)CCCCCCCNC(=O)CCOCC(COCCC(=O)NCCCCCCCC(=O)NCCCCCCOC3OC(C(=O)O)C(OC4OC(COS(=O)(=O)O)C(O)C(O)C4NC(C)=O)C(O)C3OS(=O)(=O)O)(COCCC(=O)NCCCCCCCC(=O)NCCCCCCOC3OC(C(=O)O)C(OC4OC(COS(=O)(=O)O)C(O)C(O)C4NC(C)=O)C(O)C3OS(=O)(=O)O)COCCC(=O)NCCCCCCCC(=O)NCCCCCCOC3OC(C(=O)O)C(OC4OC(COS(=O)(=O)O)C(O)C(O)C4NC(C)=O)C(O)C3OS(=O)(=O)O)C(OS(=O)(=O)O)C2O)OC(COS(=O)(=O)O)C(O)C1O (stereo not shown) [Compound 20a]	–	~14.1 nM	–
